This is an account of results in ChEMBL document CHEMBL1124150, “cis-4-Carboxy-6-(mercaptomethyl)-3,4,5,6-tetrahydropyrimidin-2(1 H)-one , a potent inhibitor of mammalian dihydroorotase” (J Med Chem, 1988).

The subject of series [1] is B16. Nature of the series: In vitro antiproliferative activity against Murine B16 Melanoma cells in presence of 1 mM uridine at a dose of 2 mM. The series is classed as functional, Mus musculus.
For series [2], the system named is B16. The experiment in a line: In vitro antiproliferative activity against Murine B16 Melanoma cells in presence of 1 mM uridine at a dose of 0.25 mM. The series is classed as functional, Mus musculus.
The test system of series [3] is B16. Nature of the series: In vitro antiproliferative activity against Murine B16 Melanoma cells in presence of 1 mM uridine at a dose of 1 mM. The series is classed as functional, Mus musculus.
Series [4] concerns B16. Nature of the series: In vitro antiproliferative activity against Murine B16 Melanoma cells without uridine at a dose of 2 mM. The series is classed as functional, Mus musculus.
Series [5] concerns B16. Nature of the series: In vitro antiproliferative activity against Murine B16 Melanoma cells without uridine at a dose of 0.5 mM. The series is classed as functional, Mus musculus.
For series [6], the system named is B16. Nature of the series: In vitro antiproliferative activity against Murine B16 Melanoma cells in presence of 1 mM uridine at a dose of 0.5 mM. The series is classed as functional, Mus musculus.
In series [7] the test system is B16. Nature of the series: In vitro antiproliferative activity against Murine B16 Melanoma cells without uridine at a dose of 0.12 mM. The series is classed as functional, Mus musculus.
Series [8] relates to B16. The experiment in a line: In vitro antiproliferative activity against Murine B16 Melanoma cells without uridine at a dose of 0.25 mM. The series is classed as functional, Mus musculus.
The test system of series [9] is B16. The experiment in a line: In vitro antiproliferative activity against Murine B16 Melanoma cells in presence of 1 mM uridine at a dose of 0.12 mM. The series is classed as functional, Mus musculus.
Series [10] has as its system B16. Nature of the series: In vitro antiproliferative activity against Murine B16 Melanoma cells without uridine at a dose of 1 mM. The series is classed as functional, Mus musculus.
Series [11] can be described thus: Dissociation constant was determined. The series is classed as physicochemical.
For series [12], the system named is B16. Nature of the series: In vitro antiproliferative activity against Murine B16 Melanoma cells in presence of 1 mM uridine at a dose of 10 mM. The series is classed as functional, Mus musculus.
In series [13] the test system is B16. Nature of the series: In vitro antiproliferative activity against Murine B16 Melanoma cells without uridine at a dose of 0.1 mM. The series is classed as functional, Mus musculus.
For series [14], the system named is B16. The experiment in a line: In vitro antiproliferative activity against Murine B16 Melanoma cells in presence of 1 mM uridine at a dose of 0.1 mM. The series is classed as functional, Mus musculus.
Series [15] deals with B16. The experiment in a line: In vitro antiproliferative activity against Murine B16 Melanoma cells without uridine at a dose of 10 mM. The series is classed as functional, Mus musculus.
The test system of series [16] is B16. The experiment in a line: In vitro antiproliferative activity against Murine B16 Melanoma cells in presence of 1 mM uridine at a dose of 0.01 mM. The series is classed as functional, Mus musculus.
Series [17] concerns B16. Nature of the series: In vitro antiproliferative activity against Murine B16 Melanoma cells without uridine at a dose of 0.01 mM. The series is classed as functional, Mus musculus.

Take `COC(=O)[C@@H]1C[C@H](CSC(C)=O)NC(=O)N1` (relative stereo): the Growth inhibition in [1] amounted to 98%; in [2] it was 2%; in [3], 83%; in series [4] it was 96%; in series [5], 28%; in series [6], 9%. The Growth inhibition in series [7] amounted to 0%; in series [8], 2%; in [9], 0%; in [10] it was 94%.

`O=C1N[C@@H](CS)C[C@@H](C(=O)O)N1` (relative stereo): the Growth inhibition in series [1] worked out at 18%; in series [2], 3%; in series [3] it was 12%; in series [4] it was 22%; in series [5], 14%; in series [6] it was 4%. For the same compound, the Growth inhibition is recorded as 4% in [7], 9% in [8], 0% in [9] and 17% in [10]. The compound also came in with a Ki in [11] of 200 nM.

As to `O=C(O)C[C@H](NC(=O)CP(=O)(O)O)C(=O)O` [PALA], the Growth inhibition in series [12] was found to be 10%; in series [13], 79%; in [14] it was 6%; in series [3], 9%; in series [15], 84%; in series [16], 6%. The Growth inhibition is reported as 86% in series [10] and 16% in [17].

For orientation: Ki means the dissociation constant of the complex between target and ligand, obtained from inhibition or displacement.
